A short description of data set [1]: Intrinsic dissolution of various nefazodone salts in water at 37° C. To be noted: for Intrinsic Dissolution Rate: n = 2; for Final pH: pH of the aqueous medium after dissolution had occurred. Format: physicochemical. The protocol:
Table 1 sets out intrinsic dissolution rates for various salts of nefazodone in water at 37° C. The final pH value is the pH of the aqueous medium after dissolution had occurred. […] Note, however, that the tosylate salt's dissolution rate is also slow even though the media is acidic in nature.
The intrinsic dissolution experiments were performed with 75 mL water as the dissolution medium. The details of these dissolution experiments are summarized below:
Container: Double-walled beaker, 100 mL capacity, round bottom.
Volume of sample withdrawn per interval: 1 mL.
Temperature of the solution in the beaker was maintained by means of a circulating waterbath. The medium was stirred with a USP II paddle using 100 rpm stirring rate (paddle depth=1 inch below the surface of the medium). Samples were withdrawn through a 0.45 μm syringe filter and were analyzed without any further dilution or treatment by HPLC (Method 1).

The nature of data set [2]: Drug release from tablets in simulated gastric fluid pH 1.2 (FIG. 2). Type of data set: physicochemical. To be noted: pH 1.2, 37° C. How it is done:
(§1) The curves are plotted as percent nefazodone released over time in hours.
(§2) Remaining dissolution experiments were made with the nefazodone salts formulated into tablets as described more fully infra. Essentially, the tablets were comprised of a nefazodone salt, hydroxypropylcellulose, lactose and magnesium stearate.
(§3) Release Profiles from the Tablet Formulation
(§4) The preparation and characterization of tablets of salts of nefazodone was performed as described below:
(§5) The nefazodone salt, hydroxypropyl cellulose EF and lactose were mixed for 10-15 minutes. Magnesium stearate was added to this mixture, mixing it for five more minutes. Tablets were compressed using a Manesty machine (Model-Manesty B3B). The tablet hardness was approximately 7 SCU.
(§6) Dissolution studies were performed with a USP II apparatus in simulated gastric fluid (USP, pH 1.2), simulated intestinal fluid (USP, pH 7.5) and 0.5 M THAM (pH 7.7). The details of conditions for the dissolution experiments are as follows:
(§7) […]: 900 mL.
(§8) Sample volume withdrawn at each interval: 0.7 mL.
(§9) Samples were filtered during withdrawal and chromatographed without further dilution or treatment. Samples were analyzed by Waters HPLC system. The HPLC conditions are listed in Method 2 below.

Data set [3] can be described thus: Drug release from tablets in 0.5M THAM buffer (FIG. 4). To be noted: 37° C. Type of data set: physicochemical. The protocol: as §1, §2, §3, §4, §5
The details of conditions for the dissolution experiments are as follows:
as §7, §8, §9

The nature of data set [4]: Drug release from tablets in simulated intestinal fluid pH 7.5 (FIG. 3). Format: physicochemical. To be noted: pH 7.5, 37° C. The protocol: as §1, §2, §3, §4, §5, §6, §7, §8, §9
A short description of data set [5]: Dissolution of powdered nefazodone salts in 0.125M THAM buffer (FIG. 1). Format: physicochemical. To be noted: powder, pH 7.5, 37° C. The protocol: The curves are plotted as cumulative amounts of nefazodone versus time in minutes.
To assess solubility in non-acidic media, dissolution rates were determined for selected nefazodone salts in THAM buffer (0.125M, pH 7.5) made by dissolving tri(hydroxymethyl)aminomethane in water and adjusting the pH with conc. hydrochloride acid.
Intrinisic Dissolution Experiments in THAM
THAM buffer was prepared by dissolving tri(hydroxymethyl)aminomethane in water and adjusting the pH with concentrated hydrochloric acid. Dissolution of salts of nefazodone in powder form was studied in this medium.
The experiments were conducted in 0.125 M THAM (pH 7.7) at 37° C. using the USP II dissolution apparatus. Nefazodone […] in powder form (about 75-80 mg) were added to 900 mL dissolution medium stirred at 50 rpm and samples were withdrawn at time points up to 2 hours. The USP official method recommends paddles to be 1 inch from the bottom. In this experiment, paddles were 3/4 inch from the bottom. The paddle depth was altered to facilitate suspension of the powder during experiments. Samples were analyzed using HPLC assay.

Data set [6] can be described thus: Aqueous solubility of nefazodone as a function of pH. Type of data set: physicochemical. The following applies: gastrointestinal tract / pH range.
Data set [7] is described as follows: Stability under pharmaceutical processing and storage. Format: physicochemical. The following applies: pharmaceutical processing/handling and storage; listed as mesylate salt.
For data set [8] the following is noted: cited from earlier work.
For data set [9] the following is noted: extended release formulations, cited from earlier work.
The conditions of data set [10]: cited from earlier work. This is another data set of the same source.

“Also recorded” adds a separate entry of the source. Where a name gives a salt, the structure may show the parent alone. Read-outs that look alike come from different tables or passages of the source.

With `CCc1nn(CCCN2CCN(c3cccc(Cl)c3)CC2)c(=O)n1CCOc1ccccc1` [Acetate], in data set [1], the “solubility / dissolution rate in water” value is “Low solubilities”, the “Intrinsic Dissolution Rate” value is reported as 0.03 mg/min/cm 2 and the “Final pH” value is recorded as 5.4.
The like results for `CCc1nn(CCCN2CCN(c3cccc(Cl)c3)CC2)c(=O)n1CCOc1ccccc1` [Succinate] were, in that order, “Low solubilities”, 0.16 mg/min/cm 2 and 5.0.
With `CCc1nn(CCCN2CCN(c3cccc(Cl)c3)CC2)c(=O)n1CCOc1ccccc1` [L-Tartrate], in data set [1], the “Intrinsic Dissolution Rate” value came to 0.97 mg/min/cm 2 and the “Final pH” value is given as 3.8.
The like results for `CCc1nn(CCCN2CCN(c3cccc(Cl)c3)CC2)c(=O)n1CCOc1ccccc1` [DL-Malate] were, in that order, 0.98 mg/min/cm 2 and 4.3.
With `CCc1nn(CCCN2CCN(c3cccc(Cl)c3)CC2)c(=O)n1CCOc1ccccc1` [Mesylate], the “drug release from tablets” value is on record as “good but not excessive dissolution” in [2]; “more modest release” in data set [2] (listed as mesylate salt); “outperforms the others” in data set [3]; “best of class dissolution” in [4]; “performs better than the other salts” in data set [4] (listed as mesylate salt). For the same compound, the “Intrinsic Dissolution Rate” value in [1] is listed as 2.7 mg/min/cm 2. Further, the “Final pH” value in data set [1] stood at 4.0. In data set [5], the “concentration of drug dissolved compared to the hydrochloride salt” value was “in the higher grouping, the mesylate is not the best of those shown”. In [6], the “solubility throughout the gastrointestinal tract” value was “exhibit solubility throughout the gastrointestinal tract”. Further, in [7], the “stability” value is “stable solid; also recorded: stable under conditions of pharmaceutical processing and storage”.
For `CCc1nn(CCCN2CCN(c3cccc(Cl)c3)CC2)c(=O)n1CCOc1ccccc1` [Tosylate], in data set [1], the “solubility / dissolution rate in water” value was “slow”, the “Intrinsic Dissolution Rate” value was 0.1 mg/min/cm 2 and the “Final pH” value came to 4.4.
In the case of `CCc1nn(CCCN2CCN(c3cccc(Cl)c3)CC2)c(=O)n1CCOc1ccccc1` [D-Malate], in [1], the “Intrinsic Dissolution Rate” value was 1.15 mg/min/cm 2 and the “Final pH” value stood at 4.2.
For `CCc1nn(CCCN2CCN(c3cccc(Cl)c3)CC2)c(=O)n1CCOc1ccccc1` [Maleate], in that order: 0.30 mg/min/cm 2 and 4.8.
Take `CCc1nn(CCCN2CCN(c3cccc(Cl)c3)CC2)c(=O)n1CCOc1ccccc1` [L-Malate]: in data set [1], the “Intrinsic Dissolution Rate” value was 1.36 mg/min/cm 2 and the “Final pH” value was determined as 4.2.
As for `CCc1nn(CCCN2CCN(c3cccc(Cl)c3)CC2)c(=O)n1CCOc1ccccc1` [Nefazodone base], the pka result in [8] (first of two pka values) is reported as “about 6.4”. Also, the pka in [8] (second of two pka values) is roughly 9.5. Further, in data set [1], the “solubility / dissolution rate in water” value was “Low solubilities”, the “Intrinsic Dissolution Rate” value is on record as 0.002 mg/min/cm 2 and the “Final pH” value is 7.2. The “nefazodone release in the human intestinal tract” value in [9] (pH approaches neutrality) is “inhibited”. In addition, the “aqueous solubility” value in [10] (pH values greater than 6) is listed as “low aqueous solubility”.
Take `CCc1nn(CCCN2CCN(c3cccc(Cl)c3)CC2)c(=O)n1CCOc1ccccc1` [Hydrochloride, reference compound]: the “drug release from tablets” value in data set [2] (listed as hydrochloride salt) is recorded as “good solubility”. In data set [1], the “Intrinsic Dissolution Rate” value was 0.93 mg/min/cm 2 and the “Final pH” value was found to be 4.4. Also, the “bioavailability” value in data set [9] was “low observed bioavailability”. In addition, in data set [10] (intestinal tract, pH ranges from about 5-7), the “solubility in the intestinal tract” value is “low solubility”.
`CCc1nn(CCCN2CCN(c3cccc(Cl)c3)CC2)c(=O)n1CCOc1ccccc1` [D-Tartrate]: in data set [1], the “Intrinsic Dissolution Rate” value is 1.13 mg/min/cm 2 and the “Final pH” value was determined as 3.7.
The like results for `CCc1nn(CCCN2CCN(c3cccc(Cl)c3)CC2)c(=O)n1CCOc1ccccc1` [DL-Tartrate] were, in that order, 1.2 mg/min/cm 2 and 3.7.
